Measurements from US8669232B2, “Flavonol compounds, a bioactive extract/fraction from Ulmus wallichiana and its compounds for prevention for treatment of osteo-health related disorders” (Council of Scientific & Industrial Research, priority 2008, dated 2014).

Experiments:
[1] = system: ovariectomized Sprague Dawley rats; assay: Uterine weight in Ovx rats (estrogen agonistic effect); assay type: in vivo; settings: 1.0&5.0 mg/kg body weight, 90 days, uterine weight comparable with Ovx + vehicle
Procedure: Ethanolic extracts of […] at the doses of 500-& 750 mg/kg body weight were given daily by oral route to Sprague Dawley (180-200 g) rats after bilateral ovariectomy (Ovx). This is the most widely used animal model for osteopenia (bone loss) mimicking human condition of post-menopausal bone loss. The extract was given in gum acacia (vehicle). Sham operated rats and Ovx rats were used as controls and given only gum acacia. Each group consisted of 10 rats and the groups were as follows: sham intact, Ovx, Ovx+500 mg/kg extract and Ovx+750 mg/kg extract. Treatment started 24 h after the surgery and continued for 90 days. After 90 days, the rats were first acclimatized and then kept in metabolic cages with no food but only water for 24 h to collect urine samples. After 24 h, rats were returned to the cages with food and water ad libitum with oral administration of the extract as before foe an additional 24 hour. Rats were then euthanized and autopsied to collect blood, bones (tibia, femur, L1-L4 vertebrae) and uterus. […] at 1 to 10 mg/kg body weight were given daily by oral route to Sprague Dawley (180-200 g) rats after bilateral ovariectomy (Ovx). This is the most widely used animal model for osteopenia (bone loss) mimicking human condition of post-menopausal bone loss. The extract was given in gum acacia (vehicle). […]

[2] = system: growing female Sprague Dawley rats; assay: Attainment of peak bone mass: BMD by DEXA in growing rats; assay type: in vivo; settings: 21 days old female rats, 5 mg/kg body weight oral daily, 30 days; vs vehicle
Procedure: 21 days old female Sprague Dawley rats were divided into three groups, each group consisted of 10 rats; control (vehicle treated), 750 mg/kg C002 crude extract, and 50 mg/kg 914/F004. Vehicle or treatments were given daily by oral route in gum acacia for 30 days. After completion of 30 days the rats were euthanized and there bones (femur, tibia, L1-L4 vertebra) were collected.
Bone Mineral Density of Femur (Global, head, neck), tibia (global, head, tibio-fibular separation point) and lumber vertebra (LV1, LV2, LV3, LV4) was determined by DEXA.
Female Sprague Dawley rats at weaning (˜21 d old) were divided into two groups consisting of 10 rats per group. Control rats were treated with gum acacia (vehicle) and the other group was treated with K058 at 5 mg/kg body weight. All the control and treated rats were given K058 or vehicle daily by oral route in gum acacia for 30 days. After completion of 30 days the rats were euthanized and their bones (femur, tibia, L1-L4 vertebra) were collected.
Bone mineral density of femur (global, head, neck), tibia (global, head, tibio-fibular separation point) and lumber vertebra (LV1, LV2, LV3, LV4) was determined by DEXA.

calvarial osteoblasts = assay: Semi-quantitative RT-PCR of osteogenic genes; assay type: cell-based, neonatal Sprague-Dawley rats; settings: 10^−7 M
Procedure: Neonatal rat calvarial cell cultures are prepared as described previously (Chattopadhyay et al., Endocrinology 145:3451-62, 2004) using slight modification. Briefly, for calvarial osteoblast cultures, frontal and parietal bones from neonatal Sprague-Dawley rats (1-3 day old) were digested in 0.1% collagenase/0.1% dispase in α-MEM to obtain 5 sequential digests. The second through fifth digests are combined and grown to confluence at 37° C. and 5% CO2 in air in α-MEM, supplemented with 10% fetal bovine serum (FBS), 2 mM glutamine, 100 U/ml penicillin-streptomycin, non-essential amino acid solution and sodium pyruvate.
RT-PCR was performed for assessing mRNA levels of Col1 (collagen type I), Cbfa-1 (Core binding factor-1), ALP (Alkaline phosphatase), OPN (osteopontin), BMP 2 (Bone morphogenic protein 2), OPG (Osteoprotegrin), and OCN (Osteocalcin). The house-keeping gene GAPDH (Glyceraldehyde-3-phosphate dehydrogenase) was used as the internal control in this study. RNAs were extracted at 0-, 4-, 8-, 12-, 24-, and 48 h. Total RNA was extracted using TRIzol reagent (Invitrogen). A single step RT PCR kit (Qaigen) was used to perform RT-PCR according to the manufacturer's instructions. Following gene specific primer pairs were used (Table 2).

| estrogen agonistic action at the uterine level (uterine weight) [1] | mRNA levels of Alkaline phosphatase (ALP) (calvarial osteoblasts; 0 to 48 h) | mRNA levels of core binding factor-1 (Cbfa-1) (calvarial osteoblasts; 0 to 48 h) | Compound | BMD shaft region of femur [2] | mRNA levels of OPG (Osteoprotegrin) (calvarial osteoblasts) | mRNA levels of bone morphogenic protein-2 (BMP-2) (calvarial osteoblasts; 0 to 48 h) | mRNA levels of collagen I (COL-1) (calvarial osteoblasts; 0 to 48 h) | mRNA levels of osteocalcin (OCN) (calvarial osteoblasts; 0 to 48 h) |
| --- | --- | --- | --- | --- | --- | --- | --- | --- |
| no estrogen agonistic action | – | – | O=c1c(O)c(-c2ccc(O)c(O)c2)oc2cc(O)c(C3O[C@H](CO)[C@@H](O)[C@H](O)[C@H]3O)c(O)c12 (stereo partly drawn) [K012, 6-Glucopyranosyl-3,3′,4′,5,7-pentahydroxyflavone] | – | – | – | – | – |
| no estrogen agonistic action | increased | increased | O=C1c2c(cc(O)c([C@@H]3OC(CO)[C@@H](O)[C@H](O)C3O)c2O)O[C@@H](c2ccc(O)c(O)c2)[C@@H]1O (stereo partly drawn) [K058, (2S,3S)-(+)-3′,4′,5,7-tetrahydroxydihydroflavonol-6-C-β-D-glucopyranoside] | significantly more | increased | increased | increased | increased |
